# Laboratory results as given in the supplement of paper PMC13380429.
# Key:
# Details in all cases: 72 h
# HepG2 [1] = experiment: relative viability EC50 (midpoint between 100% and the lowest measured viability); higher = less toxic
# Calu-3 [2] = experiment: as above
# U2OS [3] = experiment: as above
# Vero E6 [4] = experiment: as above
# Caco-2 [5] = experiment: as above
# HepG2 [6] = experiment: drug sensitivity score (DSS) for viability; higher = more toxic; extreme values may be limits of the assay
# Calu-3 [7] = experiment: as above
# U2OS [8] = experiment: as above
# Vero E6 [9] = experiment: as above
# Caco-2 [10] = experiment: as above
# HepG2 [11] = experiment: cell viability relative to DMSO; higher = less toxic
# Calu-3 [12] = experiment: as above
# U2OS [13] = experiment: as above
# Vero E6 [14] = experiment: as above
# Caco-2 [15] = experiment: as above
SMILES,relative viability EC50 (HepG2 [1]) [µM],relative viability EC50 (Calu-3 [2]) [µM],relative viability EC50 (U2OS [3]) [µM],relative viability EC50 (Vero E6 [4]) [µM],relative viability EC50 (Caco-2 [5]) [µM],drug sensitivity score (HepG2 [6]),drug sensitivity score (Calu-3 [7]),drug sensitivity score (U2OS [8]),drug sensitivity score (Vero E6 [9]),drug sensitivity score (Caco-2 [10]),cell viability (HepG2 [11]; 1 nM) [%],cell viability (HepG2 [11]; 10 nM) [%],cell viability (HepG2 [11]; 100 nM) [%],cell viability (HepG2 [11]; 1000 nM) [%],cell viability (HepG2 [11]; 10000 nM) [%],cell viability (Calu-3 [12]; 1 nM) [%],cell viability (Calu-3 [12]; 10 nM) [%],cell viability (Calu-3 [12]; 100 nM) [%],cell viability (Calu-3 [12]; 1000 nM) [%],cell viability (Calu-3 [12]; 10000 nM) [%],cell viability (U2OS [13]; 1 nM) [%],cell viability (U2OS [13]; 10 nM) [%],cell viability (U2OS [13]; 100 nM) [%],cell viability (U2OS [13]; 1000 nM) [%],cell viability (U2OS [13]; 10000 nM) [%],cell viability (Vero E6 [14]; 1 nM) [%],cell viability (Vero E6 [14]; 10 nM) [%],cell viability (Vero E6 [14]; 100 nM) [%],cell viability (Vero E6 [14]; 1000 nM) [%],cell viability (Vero E6 [14]; 10000 nM) [%],cell viability (Caco-2 [15]; 1 nM) [%],cell viability (Caco-2 [15]; 10 nM) [%],cell viability (Caco-2 [15]; 100 nM) [%],cell viability (Caco-2 [15]; 1000 nM) [%],cell viability (Caco-2 [15]; 10000 nM) [%]
O=C(O)c1ccccc1Nc1cccc(OCc2ccc3ccccc3n2)c1 [SR-2640],> 10,> 10,> 10,> 10,> 10,0,0,0,0,0,87.9,96.3,96.9,101,105,97.6,94.6,103,98.2,98.4,105,98.1,103,99.2,101,92,98.9,92.9,95,86.9,105,103,107,96.8,91.7
COc1cc(NC(=O)c2cccc(-n3cc(NC(=O)Nc4cccc(C)c4)cn3)c2)cc(OC)c1OC [SR-3576],> 10,> 10,> 10,> 10,> 10,0,0.6,0,0,1.3,98.3,99.4,94.1,95.3,99.4,91.1,93.9,93.4,93.1,81,100,102,100,99.6,91.1,101,102,97.2,96.6,95.9,104,105,101,85.2,87.7
Cc1sc(C)c2c1CCC=C2c1c[nH]cn1 [TC-G-1000],> 10,> 10,> 10,> 10,> 10,0,0,0,0,0,111,108,111,97,104,102,97.3,102,97.2,102,101,96.8,95.6,102,97,103,96.4,100,99.9,96.7,106,93.3,100,99.2,94.6
N#Cc1cnc2cnc(NCc3cccnc3)cc2c1Nc1ccc(F)c(Cl)c1 [TC-S-7006],1.85,> 10,> 10,> 10,> 10,4.1,0,0.4,0,1.9,102,93,107,91.2,50,96.6,96.8,96.9,91.8,89,96.3,106,96.1,96.8,85.2,97.2,94.1,94,85.8,95.4,93.3,99,91.1,88.3,75.6
Nc1nccc(/C=C/c2ccccc2)n1 [TCN238],> 10,> 10,> 10,> 10,> 10,0,0,0,0,0.4,110,92.9,112,97.3,105,98.7,97.9,99.4,102,103,96,99.9,97.6,103,97.5,104,98.6,101,97.7,103,89.6,98,89.2,100,83.2
Cn1c2cc([S+](C)[O-])sc2c2cnn(Cc3cccc(N)c3)c(=O)c21 (stereo not given) [TEPP-46],> 10,> 10,> 10,> 10,> 10,0,0,0,0,0,119,103,111,98.5,102,104,97.6,96.7,94.7,94.7,98.3,97.1,97.8,100,98.7,103,97.4,106,96.3,91.9,98.7,98.3,92.7,98.1,89
CN(C)C/C=C/C(=O)Nc1ccc(C(=O)Nc2cccc(Nc3ncc(Cl)c(-c4c[nH]c5ccccc45)n3)c2)cc1 [THZ1],0.0248,0.107,0.11,0.811,0.185,30.2,14.4,22.6,11.5,13.5,108,87.2,10,5.4,4.8,96.1,97,71.8,39.6,40.7,97,102,58.2,6.2,4.9,103,101,99.4,44.4,11.4,95.6,104,88.9,36.9,37
